Assay results taken from ChEMBL document CHEMBL1129716, “Indolizidine derivatives as potential substance P antagonists” (Bioorg Med Chem Lett, 1996).

Molecular target: Substance-P receptor (Homo sapiens, UniProt P25103)
Experiment: Binding affinity was carried out with NK 1 receptors from U-373MG human astrocytoma cell line
Format: cell-based
Details: u-373mg atcc

Chain of Substance-P receptor (P25103 whole entry): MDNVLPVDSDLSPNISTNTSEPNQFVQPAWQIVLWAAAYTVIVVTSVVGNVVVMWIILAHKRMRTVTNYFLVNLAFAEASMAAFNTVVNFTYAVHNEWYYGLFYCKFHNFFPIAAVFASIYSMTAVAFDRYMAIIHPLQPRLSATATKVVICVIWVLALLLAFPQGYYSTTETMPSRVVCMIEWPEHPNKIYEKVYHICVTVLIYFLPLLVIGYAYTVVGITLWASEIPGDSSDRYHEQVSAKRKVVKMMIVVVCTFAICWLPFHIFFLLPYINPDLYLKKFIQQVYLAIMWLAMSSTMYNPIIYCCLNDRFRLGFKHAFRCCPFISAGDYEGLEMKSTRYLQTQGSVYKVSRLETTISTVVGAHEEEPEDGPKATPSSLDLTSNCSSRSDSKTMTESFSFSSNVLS

SMILES	Log Ki
C=C1CN2CCC[C@H](NCc3ccccc3OC)[C@@]2(c2ccccc2)C1	< -7
COc1ccccc1CN[C@H]1CCCN2CCC[C@]12c1ccccc1	< -7
